Patent publication US9957264B2 (Merck Sharp & Dohme Corp., priority 2013, dated 2018)

How the values were obtained:
[1] = molecular target: JAK1 (recombinant purified GST-tagged catalytic domain) (Homo sapiens (Human), UniProt P23458); assay: Jak Biochemical HTRF Assay (JAK1); details: [ATP] 31.8 μM
Method in brief: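 HTRF kinase format: compounds pre-equilibrated with recombinant GST-tagged JAK1 or JAK2 catalytic domain, then ATP started a 120 min room-temperature reaction on a common peptide substrate. Phosphopeptide detected via Eu-pY20/streptavidin-Dylight 650 after EDTA quench; percent inhibition versus log concentration fitted (4-parameter) to give IC50.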

[2] = molecular target: JAK2 (recombinant purified GST-tagged catalytic domain) (Homo sapiens (Human), UniProt O60674); assay: Jak Biochemical HTRF Assay (JAK2); details: [ATP] 8.5 μM
JAK2 (recombinant purified GST-tagged catalytic domain), sequence (O60674 849-1124): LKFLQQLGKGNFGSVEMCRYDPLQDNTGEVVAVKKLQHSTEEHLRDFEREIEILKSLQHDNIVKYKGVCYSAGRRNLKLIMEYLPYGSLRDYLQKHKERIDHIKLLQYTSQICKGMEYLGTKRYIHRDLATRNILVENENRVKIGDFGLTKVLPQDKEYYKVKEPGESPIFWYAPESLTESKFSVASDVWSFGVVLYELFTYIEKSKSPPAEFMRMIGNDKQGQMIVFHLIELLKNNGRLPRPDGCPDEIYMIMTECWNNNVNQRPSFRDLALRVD

JAK1 (recombinant purified GST-tagged catalytic domain), sequence (P23458 875-1153): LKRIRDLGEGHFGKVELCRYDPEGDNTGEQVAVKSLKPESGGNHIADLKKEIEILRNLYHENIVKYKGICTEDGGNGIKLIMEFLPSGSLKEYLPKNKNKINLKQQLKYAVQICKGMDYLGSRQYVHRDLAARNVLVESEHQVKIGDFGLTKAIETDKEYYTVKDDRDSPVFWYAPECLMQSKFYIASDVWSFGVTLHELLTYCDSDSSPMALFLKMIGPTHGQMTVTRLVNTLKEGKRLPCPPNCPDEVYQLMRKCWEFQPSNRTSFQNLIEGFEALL

## N#CC[C@]1(n2nc(Nc3ccc(Cl)cc3)c3c(=O)[nH]ccc32)CC[C@H](Nc2ccccc2)CC1 [Example 18-14, Trans 2-(1-(3-((4-chlorophenyl)amino)-4-oxo-4,5-dihydro-1H-pyrazolo[4,3-c]pyridin-1-yl)-4-(phenylamino)cyclohexyl)acetonitrile]
[1]
  IC50: 1.71 nM
[2]
  IC50: 32.4 nM

## COC1CN([C@H]2CC[C@@](CC#N)(n3nc(Nc4ccc(OC(F)(F)F)cc4)c4c(=O)[nH]ccc43)CC2)C1 [Example 18-15, Cis 2-(4-(3-methoxyazetidin-1-yl)-1-(4-oxo-3-((4-(trifluoromethoxy)phenyl)amino)-4,5-dihydro-1H-pyrazolo[4,3-c]pyridin-1-yl)cyclohexyl)acetonitrile]
[1]
  IC50: 151 nM
[2]
  IC50: 1140 nM

## COC1CN([C@H]2CC[C@](CC#N)(n3nc(Nc4ccc(OC(F)(F)F)cc4)c4c(=O)[nH]ccc43)CC2)C1 [Example 18-16, Trans 2-(4-(3-methoxyazetidin-1-yl)-1-(4-oxo-3-((4-(trifluoromethoxy)phenyl)amino)-4,5-dihydro-1H-pyrazolo[4,3-c]pyridin-1-yl)cyclohexyl)acetonitrile]
[1]
  IC50: 0.15 nM
[2]
  IC50: 1.43 nM

## N#CC[C@]1(n2nc(Nc3ccc(OC(F)(F)F)cc3)c3c(=O)[nH]ccc32)CC[C@@H](Nc2ccccc2)CC1 [Example 18-17, Cis 2-(1-(4-oxo-3-((4-(trifluoromethoxy)phenyl)amino)-4,5-dihydro-1H-pyrazolo[4,3-c]pyridin-1-yl)-4-(phenylamino)cyclohexyl)acetonitrile]
[1]
  IC50: 120 nM
[2]
  IC50: 1100 nM

## N#CC[C@]1(n2nc(Nc3ccc(OC(F)(F)F)cc3)c3c(=O)[nH]ccc32)CC[C@H](Nc2ccccc2)CC1 [Example 18-18, Trans 2-(1-(4-oxo-3-((4-(trifluoromethoxy)phenyl)amino)-4,5-dihydro-1H-pyrazolo[4,3-c]pyridin-1-yl)-4-(phenylamino)cyclohexyl)acetonitrile]
[1]
  IC50: 7.27 nM
[2]
  IC50: 54.7 nM

## N#CC[C@]1(n2nc(Nc3ccc(OC(F)(F)F)cc3)c3c(=O)[nH]ccc32)CC[C@H](NC2CCCCC2)CC1 [Example 18-19, Trans 2-(4-(cyclohexylamino)-1-(4-oxo-3-((4-(trifluoromethoxy)phenyl)amino)-4,5-dihydro-1H-pyrazolo[4,3-c]pyridin-1-yl)cyclohexyl)acetonitrile]
[1]
  IC50: 0.37 nM
[2]
  IC50: 36.6 nM

## N#CC[C@]1(n2nc(Nc3ccc(OC(F)(F)F)cc3)c3c(=O)[nH]ccc32)CC[C@@H](NC2CCCCC2)CC1 [Example 18-20, Cis 2-(4-(cyclohexylamino)-1-(4-oxo-3-((4-(trifluoromethoxy)phenyl)amino)-4,5-dihydro-1H-pyrazolo[4,3-c]pyridin-1-yl)cyclohexyl)acetonitrile]
[1]
  IC50: 52.2 nM
[2]
  IC50: > 1500 nM

## N#CC[C@]1(n2nc(Nc3ccc(Cl)c(F)c3)c3c(=O)[nH]ccc32)CC[C@H](NC2CCCCC2)CC1 [Example 18-21, Trans 2-(1-(3-((4-chloro-3-fluorophenyl)amino)-4-oxo-4,5-dihydro-1H-pyrazolo[4,3-c]pyridin-1-yl)-4-(cyclohexylamino)cyclohexyl)acetonitrile]
[1]
  IC50: 0.12 nM
[2]
  IC50: 64.2 nM

## N#CC[C@]1(n2nc(Nc3ccc(Cl)c(F)c3)c3c(=O)[nH]ccc32)CC[C@@H](NC2CCCCC2)CC1 [Example 18-22, Cis 2-(1-(3-((4-chloro-3-fluorophenyl)amino)-4-oxo-4,5-dihydro-1H-pyrazolo[4,3-c]pyridin-1-yl)-4-(cyclohexylamino)cyclohexyl)acetonitrile]
[1]
  IC50: 20.5 nM
[2]
  IC50: > 1500 nM

## COC1CN([C@H]2CC[C@@](CC#N)(n3nc(Nc4ccc(Cl)c(F)c4)c4c(=O)[nH]ccc43)CC2)C1 [Example 18-23, Cis 2-(1-(3-((4-chloro-3-fluorophenyl)amino)-4-oxo-4,5-dihydro-1H-pyrazolo[4,3-c]pyridin-1-yl)-4-(3-methoxyazetidin-1-yl)cyclohexyl)acetonitrile]
[1]
  IC50: 125 nM
[2]
  IC50: > 1500 nM

## COC1CN([C@H]2CC[C@](CC#N)(n3nc(Nc4ccc(Cl)c(F)c4)c4c(=O)[nH]ccc43)CC2)C1 [Example 18-24, Trans 2-(1-(3-((4-chloro-3-fluorophenyl)amino)-4-oxo-4,5-dihydro-1H-pyrazolo[4,3-c]pyridin-1-yl)-4-(3-methoxyazetidin-1-yl)cyclohexyl)acetonitrile]
[1]
  IC50: 0.09 nM
[2]
  IC50: 5.87 nM

## N#CC[C@]1(n2nc(Nc3ccc(Cl)c(F)c3)c3c(=O)[nH]ccc32)CC[C@@H](Nc2ccccc2)CC1 [Example 18-25, Cis 2-(1-(3-((4-chloro-3-fluorophenyl)amino)-4-oxo-4,5-dihydro-1H-pyrazolo[4,3-c]pyridin-1-yl)-4-(phenylamino)cyclohexyl)acetonitrile]
[1]
  IC50: 70.2 nM
[2]
  IC50: > 1500 nM

## N#CC[C@]1(n2nc(Nc3ccc(Cl)c(F)c3)c3c(=O)[nH]ccc32)CC[C@H](Nc2ccccc2)CC1 [Example 18-26, Trans 2-(1-(3-((4-chloro-3-fluorophenyl)amino)-4-oxo-4,5-dihydro-1H-pyrazolo[4,3-c]pyridin-1-yl)-4-(phenylamino)cyclohexyl)acetonitrile]
[1]
  IC50: 2.48 nM
[2]
  IC50: 54.7 nM

## N#CC[C@]1(n2nc(Nc3ccc(S(=O)(=O)C(F)F)cc3)c3c(=O)[nH]ccc32)CC[C@@H](N2CC(F)C2)CC1 [Example 18-27, Cis 2-(1-(3-((4-((difluoromethyl)sulfonyl)phenyl)amino)-4-oxo-4,5-dihydro-1H-pyrazolo[4,3-c]pyridin-1-yl)-4-(3-fluoroazetidin-1-yl)cyclohexyl)acetonitrile]
[1]
  IC50: 2.23 nM
[2]
  IC50: 9.07 nM

## N#CC[C@]1(n2nc(Nc3ccc(S(=O)(=O)C(F)F)cc3)c3c(=O)[nH]ccc32)CC[C@H](N2CC(F)C2)CC1 [Example 18-28, Trans 2-(1-(3-((4-((difluoromethyl)sulfonyl)phenyl)amino)-4-oxo-4,5-dihydro-1H-pyrazolo[4,3-c]pyridin-1-yl)-4-(3-fluoroazetidin-1-yl)cyclohexyl)acetonitrile]
[1]
  IC50: 0.05 nM
[2]
  IC50: 0.11 nM

## CN1Cc2cc(Nc3nn([C@]4(CC#N)CC[C@H](N5CC(F)C5)CC4)c4cc[nH]c(=O)c34)ccc2S1(=O)=O [Example 18-31]
[1]
  IC50: 1.81 nM
[2]
  IC50: 16.9 nM

## CN1Cc2cc(Nc3nn([C@]4(CC#N)CC[C@@H](N5CC(F)C5)CC4)c4cc[nH]c(=O)c34)ccc2S1(=O)=O [Example 18-32]
[1]
  IC50: 0.04 nM
[2]
  IC50: 0.09 nM

## CN1Cc2cc(Nc3nn([C@]4(CC#N)CC[C@@H](N(C)C)CC4)c4cc[nH]c(=O)c34)ccc2S1(=O)=O [Example 18-34, Trans 2-(4-(Dimethylamino)-1-(3-((2-methyl-1,1-dioxido-2,3-dihydrobenzo-[d]isothiazol-6-yl)amino)-4-oxo-4,5-dihydro-1H-pyrazolo[4,3-c]pyridin-1-yl)cyclohexyl)acetonitrile]
[1]
  IC50: 1.07 nM
[2]
  IC50: 12.1 nM

## CC(C)(C)N1Cc2cc(Nc3nn([C@]4(CC#N)CC[C@@H](N5CC(F)C5)CC4)c4cc[nH]c(=O)c34)ccc2S1(=O)=O [Example 18-35]
[1]
  IC50: 0.21 nM
[2]
  IC50: 0.21 nM

## CC(C)(C)N1Cc2cc(Nc3nn([C@]4(CC#N)CC[C@H](N5CC(F)C5)CC4)c4cc[nH]c(=O)c34)ccc2S1(=O)=O [Example 18-36]
[1]
  IC50: 0.83 nM
[2]
  IC50: 6.85 nM
